In patent US5843950A, “1,4-dihydropyridine compound and pharmaceutical composition containing the same” (Nikken Chemicals Co., Ltd., priority 1994, dated 1998):
Where two headings read alike, the source gives them in different places.

Columns and labels:
KB cells [1] = experiment: In vitro suppression of proliferation of KB cancer cells by concomitant use with doxorubicin; format: cell-based, Human; settings: test compound 1 μg/ml with ADM, ADM alone in KB = 1
Protocol: (§1) In vitro test of action suppressing proliferation of cancer cells by concomitant use with doxorubicin
(§2) As the incubation solutions, use was made of 10% fetal calf serum (made by Flow Laboratories) and Eagle MEM medium (made by Nissui Seiyakusha) containing 0.292 mg/ml of L-glutamine (made by Flow Laboratories). The tests of the action in overcoming resistance to anti-cancer drugs or action reinforcing the effect of the anti-cancer drug through concomitant use of the anti-cancer drug doxorubicin (adriamycin, ADM) and the test compound were performed as follows: The test cells were suspended in incubation solutions and adjusted to a cell density of about 200 cells/ml. The cell suspensions were injected in 2 ml amounts into petri dishes and were incubated in a CO2 gas incubator (5% CO2, 95% air) at 37° C. for 24 hours. Next, 5 to 10 μl of a predetermined concentration of the aqueous ADM solution and a predetermined concentration of a DMSO solution of the test compound were added, then the incubation was continued for a further 7 days. After the end of the incubation, the result was immobilized by methanol, Giemsa stained and measured for the number of colonies per dish. The results were used to prepare a volume-reaction curve.

VJ-300 cells [2] = experiment: In vitro suppression of proliferation of multi-drug resistant VJ-300 cells by concomitant use with doxorubicin; format: cell-based, Human; settings: test compound 1 μg/ml with ADM, ADM alone in KB = 1
Protocol: as §1, §2

[3] = tested on: VCR resistant murine leukemia (P388/VCR) cells; experiment: In vivo effect for overcoming resistance to vincristine in VCR resistant murine leukemia (P388/VCR) bearing mice; design: species or system CDF1 male mice
Text: In vivo test of action suppressing proliferation of cancer cells by concomitant use with anti-cancer drug
The number of survival days were found and the life prolonging rate (T/C) with respect to the controls was found. The effect in overcoming resistance to an anti-cancer drug (T/V) was found by the following formula.
Effect for overcoming resistance to an anti-cancer drug (T/V) %
=[Life prolonging rate (T/C) in case of concomitant use of VCR and the compound of the present invention]/[Life prolonging rate (T/C) in case of VCR alone]×100
Using Compound 18 to Compound 22 and Compound 32, the same procedure was followed as in Test Example 5 to find the effect for overcoming resistance to an anti-cancer drug in vincristine (VCR) resistant murine leukemia cell bearing mice.

[4] = tested on: KCl contraction in rat arteries (thoracic aorta); experiment: Action easing KCl contraction in rat arteries (thoracic aorta ring); settings: read-out: IC50 value (50% inhibitory concentration of hyperpotassium contraction), Test Example 7, Table 7, 37° C.
Protocol: Action easing KCl contraction in rat arteries
The specimen was stabilized for approximately 60 minutes, then a potassium chloride solution was added to the Magnus tube to give a final concentration of […]. The positive control compound or the compound of the present invention was cumulatively added from 1×10^-10 M to 1×10^-4 M when the contraction reaction occurring at that time reached equilibrium. The contraction force was recorded by an FD-pickup (made by Nihon Kodensha) via a polygraph (made by Nihon Kodensha).

[5] = tested on: KCl contraction in rat arteries (thoracic aorta); experiment: as above; settings: read-out: IC50 value (50% inhibitory concentration of hypercalcemic contraction), Test Example 8, Table 8
multi-drug resistance = settings: Cancer Res., 41, 1967-1972 (1981); Cancer and Chemotherapy, vol. 11, pp. 750-759 (1984); cited from earlier work
KB cells [6] = experiment: In vitro suppression of proliferation of KB cancer cells by concomitant use with vincristine; format: cell-based, Human; settings: test compound 1 μg/ml with VCR, VCR alone in KB = 1
Protocol: as §2
In vitro test of action suppressing proliferation of cancer cells by concomitant use with vincristine […]

VJ-300 cells [7] = experiment: In vitro suppression of proliferation of multi-drug resistant VJ-300 cells by concomitant use with vincristine; format: cell-based, Human; settings: test compound 1 μg/ml with VCR, VCR alone in KB = 1
[8] = Test Example 5, Table 5, T/C with VCR + compound over T/C with VCR alone ×100
[9] = Test Example 5, Table 5, VCR 100 μg/kg i.p. 5 days with compound 100 mg/kg (verapamil 60, nicardipine 75 mg/kg)
[10] = Test Example 6, Table 6, same procedure as Test Example 5

Structure (SMILES) | Resistance with ADM, KB (LD50 concentration of ADM relative to ADM alone in KB cells) (KB cells [1]) | Resistance with ADM, VJ-300 (LD50 concentration of ADM relative to ADM alone in KB cells) (VJ-300 cells [2]) | Effect for overcoming resistance T/V (%) [3, 8] [%] | Life prolonging rate T/C (%) [3, 9] [%] | Mean days of survival [3, 9] [days] | IC50 [4] [nM] | IC50 [5] [nM] | overcoming multi-drug resistance by concomitant administration with an anti-cancer drug (multi-drug resistance) | Resistance with VCR, KB (LD50 concentration of VCR relative to VCR alone in KB cells) (KB cells [6]) | Resistance with VCR, VJ-300 (LD50 concentration of VCR relative to VCR alone in KB cells) (VJ-300 cells [7]) | Effect for overcoming resistance T/V (%) [3, 10] [%] | Life prolonging rate T/C (%) [3, 10] [%] | Mean days of survival [3, 10] [days]
COc1cccc2c1C(=O)c1c(O)c3c(c(O)c1C2=O)C[C@@](O)(C(=O)CO)C[C@@H]3O[C@H]1C[C@H](N)[C@H](O)[C@H](C)O1 [ADM, doxorubicin] | 1 | 26.4 |  |  |  |  |  |  |  |  |  |  | 
COC(=O)C1=C(C)NC(C)=C(C(=O)OCCN(C)Cc2ccccc2)C1c1cccc([N+](=O)[O-])c1 (stereo not shown) [Nicardipine, nicardipine, reference compound] |  |  | 123 | 132 | 13.2 | 530 | 150 | effective |  |  |  |  | 
CC[C@]1(O)C[C@H]2CN(CCc3c([nH]c4ccccc34)[C@@](C(=O)OC)(c3cc4c(cc3OC)N(C=O)[C@H]3[C@@](O)(C(=O)OC)[C@H](OC(C)=O)[C@]5(CC)C=CCN6CC[C@]43[C@@H]65)C2)C1 [VCR, vincristine, reference compound] |  |  | 100 | 107 | 10.7 |  |  |  | 1 | 603.4 | 100 | 102 | 10.9
